Columns and labels:
fecal coliform bacteria = test: Secondary sludge full-scale test: fecal coliform reduction at varying dose rates of chlorine dioxide; format: cell-based; conditions: for Fecal coliform: sludge, 10 minutes contact time
Method: Treatment of non-digested wastewater sludge with chlorine dioxide allows the material to meet Class B pathogen reduction requirements prior to digestion by reducing the fecal coliform concentrations to levels much lower than the Class B standard (<2,000,000 fecal coliform bacteria) with less than 15 minutes contact time. The resulting biosolids cake has no odor.
In this test, chlorine dioxide was generated on-site, and was injected (at varying concentrations) into a 100 gpm sludge flow passing through a 4 inch diameter pipe. The pipe length was sufficient to allow 10 minutes of contact time between the sludge and the chlorine dioxide prior to dewatering the material.

[1] = system: Waste activated sludge (WAS); test: WAS solubilization by chlorine dioxide: soluble COD, NH4 and PO4 release over contact time; conditions: for soluble COD concentration: contact time 24 h, WAS approx. 7 g/L solids
Method: Waste activated sludge (WAS) was obtained from a local municipal WWTP which removes cBOD only and uses a pure oxygen system. In order to achieve similar experiment conditions and be consistent with the previous pilot experiment, the solids concentration was adjusted to approximately 7 g/L. Three digesters were set up and treated with chlorine dioxide dosages of 100, 150 and 200 mg/L respectively. The digesters were operated for 24 hours. Samples were taken at time intervals of 10 min, 1 h, 6 h, 12 h and 24 h to represent different contact time.
This confirmed that chlorine dioxide contact time is the key factor for WAS solubilization. The increased soluble COD concentration can be expressed as 10-11% of TCOD which is quite significant. It was also observed that soluble COD concentration at contacting time of 6 hr was approximately 55-66% of the soluble COD at time 24 hrs. […] The increase of soluble COD corresponded to the volatile solids destruction of 4-6% with different chlorine dioxide treatment dosage.
This is considered insignificant. The PO4 increase was much higher and equaled 16 to 28.3 mg P/L after 24 h. Higher phosphorus than nitrogen release can be attributed to the chlorine dioxide treatment which breaks down the cell walls resulting in the release of unbound orthophosphate PO4—P. The nitrogen in the cells is in the form of organic nitrogen (amino acids) and enzymes are required to convert organic nitrogen to ammonia nitrogen. The low pH resulting from the chlorine dioxide treatment may have deactivated the enzyme activity, therefore no/insignificant NH4—N increase was detected.

anaerobic digester = test: Methane production in anaerobic digestion of chlorine dioxide pre-treated sludge
Method: Treatment of non-digested wastewater sludge with chlorine dioxide to solubilized the sludge and make nutrients bio-available and then feeding this material into an established anaerobic digester once the chlorine dioxide residual has been reduced improves gas (methane) production in an anaerobic digester. A generally accepted estimate for methane production at 35° C. is 0.25 kg methane per kg COD consumed. One kmol of methane is equivalent with a mass of 16 kg. Per definition, the COD equivalent of 1 kmol of methane is the mass of the amount of oxygen required for complete oxidation according to the formula: CH4+2O2→CO2+2H2O The mass of the 2 O2 is 2 kmol of oxygen or 64 kg. Thus 64 kg Oxygen Demand is equivalent with 16 kg of methane, or 1 kg of oxygen demand (COD) is equivalent with 16/64=0.25 kg methane.
This increase in soluble COD represents 10-11% of the total COD concentration of the sludge, and represents a 2000% increase in soluble COD. The inventors believe that the higher the s-COD the higher capacity for methane production. The resulting increase in methane production as a result of this enhancement of anaerobic digestion has been measured as a greater than 50% increase utilizing this method, and is expected to be in the range of 100% or more over non-pretreated WAS. […]

Q: With `[O][Cl+][O-]` [chlorine dioxide] as the compound, how does the “fecal coliform concentrations relative to Class B standard” value (fecal coliform bacteria; non-digested wastewater sludge, less than 15 minutes contact time) read?
A: < 2,000,000

Q: What about the Fecal coliform (fecal coliform bacteria; dose rate ClO2 32 mg/L) of the same compound?
A: 3.32 × 10^5 MPN/g

Q: And the Fecal coliform (fecal coliform bacteria; dose rate ClO2 48 mg/L)?
A: 123,000 MPN/g

Q: What about the Fecal coliform (fecal coliform bacteria; dose rate ClO2 64 mg/L) of the same compound?
A: 1,800 MPN/g

Q: And the Fecal coliform (fecal coliform bacteria; dose rate ClO2 80 mg/L)?
A: BDL

Q: What about the Fecal coliform (fecal coliform bacteria; dose rate ClO2 96 mg/L) of the same compound?
A: BDL

Q: What about the Fecal coliform (fecal coliform bacteria; dose rate ClO2 128 mg/L) of the same compound?
A: BDL

Q: And the Fecal coliform (fecal coliform bacteria; dose rate ClO2 160 mg/L)?
A: BDL*

Q: And the NH4 increase ([1]; all chlorine dioxide treatments)?
A: 3-5.2 mg N/L

Q: What about the “soluble COD concentration” value ([1]; chlorine dioxide dosage 100 mg/L) of the same compound?
A: 913 mg/L

Q: What about the “soluble COD concentration” value ([1]; chlorine dioxide dosage 150 mg/L) of the same compound?
A: 984 mg/L

Q: What about the “soluble COD concentration” value ([1]; chlorine dioxide dosage 200 mg/L) of the same compound?
A: 965 mg/L

Q: What about the volatile solids destruction ([1]; different chlorine dioxide treatment dosages) of the same compound?
A: 4-6%

Q: And the “soluble COD at contact time 6 hr as % of soluble COD at 24 hrs” value ([1]; dosages 100-200 mg/L)?
A: 55-66%

Q: What about the “increase in soluble COD” value ([1]; dosages 100-200 mg/L, 24 h) of the same compound?
A: 2000%

Q: And the “increased soluble COD expressed as % of total COD (TCOD)” value ([1]; dosages 100-200 mg/L, 24 h)?
A: 10-11%

Q: What about the “expected increase in methane production” value (anaerobic digester; over non-pretreated WAS, expected) of the same compound?
A: ≥ 100%

Q: And the “increase in methane production” value (anaerobic digester; versus non-pretreated WAS)?
A: greater than 50%
